Assay results reported in US20260022142A1, “MACROCYCLIC IMMUNOMODULATORS” (Bristol-Myers Squibb Company, priority 2022, published 2026).
Bridge positions count the residues as written; N and C are the ends. Square brackets hold non-standard residues; d marks the D form. Peptide text beside a SMILES is read from it. * marks the point of attachment. ξ: configuration not given here. Phe(3-CF3) = N[C@@H](Cc1cccc(C(F)(F)F)c1)C(=O)O; Phe(4-CONH2) = NC(=O)c1ccc(C[C@H](N)C(=O)O)cc1; Phe(4-COOH) = N[C@@H](Cc1ccc(C(=O)O)cc1)C(=O)O; Phe(3,5-F2) = N[C@@H](Cc1cc(F)cc(F)c1)C(=O)O; Bip = N[C@@H](Cc1ccc(-c2ccccc2)cc1)C(=O)O; NH(CH2)14COOH = O=C(O)CCCCCCCCCCCCCCN*; Phe(3-Me) = Cc1cccc(C[C@H](N)C(=O)O)c1; Val(3-OH) = CC(C)(O)[C@H](N)C(=O)O; hArg = N=C(N)NCCCC[C@H](N)C(=O)O; 4Pal = N[C@@H](Cc1ccncc1)C(=O)O; Cha = N[C@@H](CC1CCCCC1)C(=O)O; Cit = NC(=O)NCCC[C@H](N)C(=O)O; Thr(3ξ) = CC(O)[C@H](N)C(=O)O; Carboxymethyl = O=C(O)C*; Nle = CCCC[C@H](N)C(=O)O; Orn = NCCC[C@H](N)C(=O)O; Pra = C#CC[C@H](N)C(=O)O; Aun = NCCCCCCCCCCC(=O)O; Dab = NCC[C@H](N)C(=O)O; Nva = CCC[C@H](N)C(=O)O; Dap = NC[C@H](N)C(=O)O; AEEA = NCCOCCOCC(=O)O

target: T1, PD-1/PD-L1 interaction (PE-labeled human PD-L1-Ig binding to Jurkat cell line over-expressing human PD-1) (Homo sapiens, UniProt Q15116); assay: Jurkat-PD-1 Cell Binding High-Content Screening Assay (CBA); format: cell-based; conditions: Jurkat cell line over-expressing human PD-1; PE-labeled PD-L1-Ig 20 nM final; read-out: Jurkat hPD1-PDL1 IC50
T1 construct: expressed in transfected cells; host or cells: Jurkat
How it was run: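 Jurkat cells over-expressing human PD-1 (8×10^3 per well, DMEM/10% FCS) preincubated with compound 2 h at 37° C, then PE-labeled human PD-L1-Ig (20 nM final) added for 1 h. Cells fixed with paraformaldehyde, Hoechst-stained, and bound fluorescence quantified by high-content imaging.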

T1 sequence (Q15116 25-288): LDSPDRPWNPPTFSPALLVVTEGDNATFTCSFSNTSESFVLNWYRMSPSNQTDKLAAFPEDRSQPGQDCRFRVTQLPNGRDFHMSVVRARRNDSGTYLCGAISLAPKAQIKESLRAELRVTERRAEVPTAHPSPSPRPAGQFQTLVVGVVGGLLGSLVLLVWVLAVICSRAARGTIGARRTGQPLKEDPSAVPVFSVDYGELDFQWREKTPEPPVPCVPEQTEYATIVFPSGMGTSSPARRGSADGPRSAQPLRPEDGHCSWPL

IC50 | SMILES
71.7 nM | CC(C)C[C@@H]1NC(=O)[C@H](Cc2c[nH]c3ccccc23)NC(=O)[C@H](CC(=O)O)NC(=O)[C@H](Cc2ccc(OCC(=O)O)cc2)NC(=O)[C@H](CN)NC(=O)CSC[C@@H](C(=O)N[C@@H](CCN)C(=O)NCCCCCCCCCCC(=O)O)NC(=O)[C@H](CCN)NC(=O)[C@H](C(C)O)NC(=O)[C@H](CC2CCCCC2)NC(=O)[C@H](CCN)NC(=O)[C@@H](CC(C)C)NC(=O)[C@H](CCCN)NC(=O)[C@H](Cc2ccc(O)cc2)NC(=O)[C@H](Cc2ccc(-c3ccccc3)cc2)NC1=O (stereo partly drawn) [Compound 3681] ({CH2CO}-[Dap]Y(Carboxymethyl)DWL[Bip]Y[Orn][dL][Dab][Cha][Thr(3ξ)][Dab]C[Dab][Aun]-OH; thioether N-14)
0.2 nM | CCC[C@@H]1NC(=O)CSC[C@@H](C(=O)N[C@@H](CCN)C(=O)NCCOCCOCC(=O)NCCCCCCCCCCC(=O)O)NC(=O)[C@H](CC(=O)O)NC(=O)[C@H](C(C)C)NC(=O)[C@H](CC2CCCCC2)NC(=O)[C@H](CCN)NC(=O)[C@@H](CC(C)C)NC(=O)[C@H](CCCN)NC(=O)[C@H](Cc2ccc(OCC(=O)O)cc2)NC(=O)[C@H](Cc2ccc(-c3ccccc3)cc2)NC(=O)[C@H](Cc2ccc(OCC(=O)O)cc2)NC(=O)[C@H](Cc2cccc(C)c2)NC(=O)[C@H](CC(=O)O)NC(=O)[C@H](Cc2ccc(OCC(=O)O)cc2)NC1=O [Compound 3804] ({CH2CO}-[Nva]Y(Carboxymethyl)D[Phe(3-Me)]Y(Carboxymethyl)[Bip]Y(Carboxymethyl)[Orn][dL][Dab][Cha]VDC[Dab][AEEA][Aun]-OH; thioether N-14)
430 nM | CCCC[C@@H]1NC(=O)CSC[C@@H](C(=O)N[C@@H](CCN)C(=O)NCCCCCCCCCCCCCCC(=O)O)NC(=O)[C@H](C(C)O)NC(=O)[C@H](C(C)(C)O)NC(=O)[C@H](CC2CCCCC2)NC(=O)[C@H](CCN)NC(=O)[C@@H](CC(C)C)NC(=O)[C@H](Cc2cnc[nH]2)NC(=O)[C@H](Cc2ccc(OCC(=O)O)cc2)NC(=O)[C@H](Cc2ccc(-c3ccccc3)cc2)NC(=O)[C@H](Cc2ccc(C(=O)O)cc2)NC(=O)[C@H](Cc2cccc(C(F)(F)F)c2)NC(=O)[C@H](CC(=O)O)NC(=O)[C@H](Cc2ccc(OCC(=O)O)cc2)NC1=O (stereo partly drawn) [Compound 3863] ({CH2CO}-[Nle]Y(Carboxymethyl)D[Phe(3-CF3)][Phe(4-COOH)][Bip]Y(Carboxymethyl)H[dL][Dab][Cha][Val(3-OH)][Thr(3ξ)]C[Dab]-{NH(CH2)14COOH}; thioether N-14)
22.8 nM | Cc1cccc(C[C@@H]2NC(=O)[C@H](CC(=O)O)NC(=O)[C@H](Cc3ccc(OCC(=O)O)cc3)NC(=O)[C@H](Cc3ccncc3)NC(=O)CSC[C@@H](C(=O)NCCOCCOCC(=O)NCCCCCCCCCCC(=O)O)NC(=O)[C@H](C(C)O)NC(=O)[C@H](C(C)(C)O)NC(=O)[C@H](CC3CCCCC3)NC(=O)[C@H](CCN)NC(=O)[C@@H](CC(C)C)NC(=O)[C@H](CCCN)NC(=O)[C@H](Cc3ccc(O)cc3)NC(=O)[C@H](Cc3ccc(-c4ccccc4)cc3)NC(=O)[C@H](Cc3ccc(C(N)=O)cc3)NC2=O)c1 (stereo partly drawn) [Compound 3730] ({CH2CO}-[4Pal]Y(Carboxymethyl)D[Phe(3-Me)][Phe(4-CONH2)][Bip]Y[Orn][dL][Dab][Cha][Val(3-OH)][Thr(3ξ)]C[AEEA][Aun]-OH; thioether N-14)

More lines, now with the values behind:

SMILES | IC50
CC(C)C[C@H]1NC(=O)[C@H](CCCN)NC(=O)[C@H](C(C)C)NC(=O)[C@H](Cc2ccc(-c3ccccc3)cc2)NC(=O)[C@H](C(C)C)NC(=O)[C@H](Cc2c[nH]c3ccccc23)NC(=O)[C@H](CC(=O)O)NC(=O)[C@H](Cc2ccc(OCC(=O)O)cc2)NC(=O)[C@H](CCCCNC(=N)N)NC(=O)CSC[C@@H](C(=O)NCC(=O)NCCOCCOCC(=O)N[C@@H](CCCN)C(=O)NCCCCCCCCCCC(=O)O)NC(=O)[C@H](CCCN)NC(=O)[C@H](C(C)C)NC(=O)[C@H](CC2CCCCC2)NC(=O)[C@H](CC(N)=O)NC1=O [Compound 3203] ({CH2CO}-[hArg]Y(Carboxymethyl)DWV[Bip]V[Orn][dL]N[Cha]V[Orn]CG[AEEA][Orn][Aun]-OH; thioether N-14) | 28.4 nM
Cc1cccc(C[C@@H]2NC(=O)[C@H](CC(=O)O)NC(=O)[C@H](Cc3ccc(OCC(=O)O)cc3)NC(=O)[C@H](C(C)O)NC(=O)CSC[C@@H](C(=O)N[C@@H](CCC(=O)O)C(=O)N[C@@H](CO)C(=O)NCCCCCCCCCCC(=O)O)NC(=O)[C@H](C(C)O)NC(=O)[C@H](C(C)C)NC(=O)[C@H](CC3CCCCC3)NC(=O)[C@H](CCN)NC(=O)[C@@H](CC(C)C)NC(=O)[C@H](CCCN)NC(=O)[C@H](CCCNC(N)=O)NC(=O)[C@H](Cc3ccc(-c4ccccc4)cc3)NC(=O)[C@H](C(C)C)NC2=O)c1 (stereo partly drawn) [Compound 3567] ({CH2CO}-[Thr(3ξ)]Y(Carboxymethyl)D[Phe(3-Me)]V[Bip][Cit][Orn][dL][Dab][Cha]V[Thr(3ξ)]CES[Aun]-OH; thioether N-14) | 33.5 nM
CC(C)C[C@@H]1NC(=O)[C@H](Cc2c[nH]c3ccccc23)NC(=O)[C@H](CC(=O)O)NC(=O)[C@H](Cc2ccc(OCC(=O)O)cc2)NC(=O)[C@H](C(C)O)NC(=O)CSC[C@@H](C(=O)N[C@@H](CCN)C(=O)NCCCCCCCCCCC(=O)O)NC(=O)[C@H](CN)NC(=O)[C@H](C(C)O)NC(=O)[C@H](CC2CCCCC2)NC(=O)[C@H](CCN)NC(=O)[C@@H](CC(C)C)NC(=O)[C@H](CCCN)NC(=O)[C@H](Cc2ccc(O)cc2)NC(=O)[C@H](Cc2ccc(-c3ccccc3)cc2)NC1=O (stereo partly drawn) [Compound 3671] ({CH2CO}-[Thr(3ξ)]Y(Carboxymethyl)DWL[Bip]Y[Orn][dL][Dab][Cha][Thr(3ξ)][Dap]C[Dab][Aun]-OH; thioether N-14) | 105 nM
Cc1cccc(C[C@@H]2NC(=O)[C@H](CC(=O)O)NC(=O)[C@H](Cc3ccc(OCC(=O)O)cc3)NC(=O)[C@H](Cc3ccc(C(=O)O)cc3)NC(=O)CSC[C@@H](C(=O)N[C@@H](CCN)C(=O)NCCCCCCCCCCC(=O)O)NC(=O)[C@H]([C@@H](C)O)NC(=O)[C@H](C(C)C)NC(=O)[C@H](CC3CCCCC3)NC(=O)[C@H](CCN)NC(=O)[C@@H](CC(C)C)NC(=O)[C@H](CCCN)NC(=O)[C@H](CCCNC(N)=O)NC(=O)[C@H](Cc3ccc(-c4ccccc4)cc3)NC(=O)[C@H](C(C)C)NC2=O)c1 [Compound 2829] ({CH2CO}-[Phe(4-COOH)]Y(Carboxymethyl)D[Phe(3-Me)]V[Bip][Cit][Orn][dL][Dab][Cha]VTC[Dab][Aun]-OH; thioether N-14) | 162 nM
Cc1cccc(C[C@@H]2NC(=O)[C@H](CC(=O)O)NC(=O)[C@H](Cc3ccc(OCC(=O)O)cc3)NC(=O)[C@H](CN)NC(=O)CSC[C@@H](C(=O)N[C@@H](CCN)C(=O)NCCOCCOCC(=O)NCCCCCCCCCCC(=O)O)NC(=O)[C@H](C(C)O)NC(=O)[C@H](Cc3ccc(O)cc3)NC(=O)[C@H](CC3CCCCC3)NC(=O)[C@H](CCN)NC(=O)[C@@H](CC(C)C)NC(=O)[C@H](CCCN)NC(=O)[C@H](CCCNC(N)=O)NC(=O)[C@H](Cc3ccc(-c4ccccc4)cc3)NC(=O)[C@H](C(C)C)NC2=O)c1 (stereo partly drawn) [Compound 2583] ({CH2CO}-[Dap]Y(Carboxymethyl)D[Phe(3-Me)]V[Bip][Cit][Orn][dL][Dab][Cha]Y[Thr(3ξ)]C[Dab][AEEA][Aun]-OH; thioether N-14) | 32.3 nM
CC(=O)NCCCC[C@@H]1NC(=O)[C@H](Cc2ccc(-c3ccccc3)cc2)NC(=O)[C@H](C(C)C)NC(=O)[C@H](Cc2cccc(C)c2)NC(=O)[C@H](CC(=O)O)NC(=O)[C@H](Cc2ccc(OCC(=O)O)cc2)NC(=O)[C@H](C(C)O)NC(=O)CSC[C@@H](C(=O)N[C@H](CC(N)=O)C(=O)NCCCCCCCCCCC(=O)O)NC(=O)[C@H](C(C)O)NC(=O)[C@H](C(C)C)NC(=O)[C@H](CC2CCCCC2)NC(=O)[C@H](CCN)NC(=O)[C@@H](CC(C)C)NC(=O)[C@H](CCCN)NC1=O (stereo partly drawn) [Compound 3431] ({CH2CO}-[Thr(3ξ)]Y(Carboxymethyl)D[Phe(3-Me)]V[Bip]K(Ac)[Orn][dL][Dab][Cha]V[Thr(3ξ)]C[dN][Aun]-OH; thioether N-14) | 4.9 nM
C#CC[C@H](NC(=O)COCCOCCNC(=O)[C@H](CCCN)NC(=O)[C@@H]1CSCC(=O)N[C@@H](Cc2ccncc2)C(=O)N[C@@H](Cc2ccc(OCC(=O)O)cc2)C(=O)N[C@@H](CC(=O)O)C(=O)N[C@@H](Cc2c[nH]c3ccccc23)C(=O)N[C@@H](C(C)C)C(=O)N[C@@H](Cc2ccc(-c3ccccc3)cc2)C(=O)N[C@@H]([C@@H](C)CC)C(=O)N[C@@H](CCCN)C(=O)N[C@H](CC(C)C)C(=O)N[C@@H](CCN)C(=O)N[C@@H](CC(C)C)C(=O)N[C@@H](C(C)C)C(=O)N[C@@H]([C@@H](C)O)C(=O)N1)C(=O)N[C@@H](CCCCN)C(=O)NCCCCCCCCCCC(=O)O [Compound 1202] ({CH2CO}-[4Pal]Y(Carboxymethyl)DWV[Bip]I[Orn][dL][Dab]LVTC[Orn][AEEA][Pra]K[Aun]-OH; thioether N-14) | 16.7 nM
Cc1cccc(C[C@@H]2NC(=O)[C@H](CC(=O)O)NC(=O)[C@H](Cc3ccc(OCC(=O)O)cc3)NC(=O)[C@H](CN)NC(=O)CSC[C@@H](C(=O)N[C@@H](CCN)C(=O)NCCOCCOCC(=O)NCCCCCCCCCCC(=O)O)NC(=O)[C@H](CCC(=O)O)NC(=O)[C@H](C(C)C)NC(=O)[C@H](Cc3cc(F)cc(F)c3)NC(=O)[C@H](CCN)NC(=O)[C@@H](CC(C)C)NC(=O)[C@H](CCCN)NC(=O)[C@H](Cc3ccc(OCC(=O)O)cc3)NC(=O)[C@H](Cc3ccc(-c4ccccc4)cc3)NC(=O)[C@H](Cc3ccc(C(=O)O)cc3)NC2=O)c1 [Compound 1269] ({CH2CO}-[Dap]Y(Carboxymethyl)D[Phe(3-Me)][Phe(4-COOH)][Bip]Y(Carboxymethyl)[Orn][dL][Dab][Phe(3,5-F2)]VEC[Dab][AEEA][Aun]-OH; thioether N-14) | 11.4 nM
